In patent US8450327B2, “CGRP antagonists” (Boehringer Ingelheim International GmbH, priority 2007, dated 2013):

Biological target: T1, human CGRP receptor (Homo sapiens, UniProt O60894+Q16602)
T1 construct: SK-N-MC cells are cultivated in “Dulbecco's modified Eagle medium”; endogenous in cells; host or cells: SK-N-MC cells (membrane homogenate)
Assay: Binding studies with SK-N-MC cells (expressing the human CGRP receptor), 125I-CGRP displacement on membranes
Conditions: SK-N-MC cell membranes, 50 pM 125I-iodotyrosyl-CGRP, 180 min at ambient temperature
Protocol: A. Binding Studies with SK-N-MC Cells (Expressing the Human CGRP Receptor)
SK-N-MC cells are cultivated in “Dulbecco's modified Eagle medium”. The medium is removed from confluent cultures. The cells are washed twice with PBS buffer (Gibco 041-04190 M), detached by the addition of PBS buffer mixed with 0.02% EDTA, and isolated by centrifuging. After resuspension in 20 ml of “Balanced Salts Solution” [BSS (in mM): NaCl 120, KCl 5.4, NaHCO3 16.2, MgSO4 0.8, NaHPO4 1.0, CaCl2 1.8, D-glucose 5.5, HEPES 30, pH 7.40] the cells are centrifuged twice at 100×g and resuspended in BSS. After the number of cells has been determined, the cells are homogenised using an Ultra-Turrax and centrifuged for 10 minutes at 3000×g. […]
After thawing, the homogenised product is diluted 1:10 with assay buffer (50 mM Tris, 150 mM NaCl, 5 mM MgCl2, 1 mM EDTA, pH 7.40) and homogenised for 30 seconds with an Ultra-Turrax. […] The protein-bound radioactivity is measured using a gamma counter. Non-specific binding is defined as the bound radioactivity after the presence of 1 μM human CGRP-alpha during incubation.
The concentration binding curves are analysed using computer-aided non-linear curve fitting.

T1 sequence (Q16602 23-461): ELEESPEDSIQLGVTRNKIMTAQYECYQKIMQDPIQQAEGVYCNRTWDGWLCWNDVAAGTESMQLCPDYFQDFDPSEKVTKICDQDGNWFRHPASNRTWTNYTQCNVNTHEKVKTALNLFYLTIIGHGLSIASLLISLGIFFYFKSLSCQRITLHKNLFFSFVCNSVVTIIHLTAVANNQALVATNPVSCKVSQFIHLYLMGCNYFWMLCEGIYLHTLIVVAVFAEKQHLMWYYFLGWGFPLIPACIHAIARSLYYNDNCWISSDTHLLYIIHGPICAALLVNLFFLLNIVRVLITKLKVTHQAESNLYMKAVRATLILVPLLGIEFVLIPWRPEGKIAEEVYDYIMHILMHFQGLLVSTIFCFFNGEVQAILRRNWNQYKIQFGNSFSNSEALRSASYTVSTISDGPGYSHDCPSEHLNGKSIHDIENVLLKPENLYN
T1 sequence (O60894 27-148): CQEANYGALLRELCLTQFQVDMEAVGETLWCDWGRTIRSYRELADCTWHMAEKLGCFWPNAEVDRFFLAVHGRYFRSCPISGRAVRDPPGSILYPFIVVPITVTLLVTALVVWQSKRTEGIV

SMILES | Ki
Cc1cc(C(=O)c2cc(Nc3ccc4c(c3)CC3(C4)C(=O)Nc4ncccc43)ncn2)cc2oc(=O)[nH]c12 (centres unmarked) [Example 2, 4-methyl-6-(6-(2′-oxo-1,1′,2′,3-tetrahydrospiro[inden-2,3′-pyrrolo[2,3-b]pyridin]-5-ylamino)pyrimidine-4-carbonyl)benzo[d]oxazol-2(3H)-one] | 27 nM
Cc1cc(C(=O)c2cc(N3CCC4(CC3)NC(=O)Nc3ccccc34)ncn2)cc2oc(=O)[nH]c12 [Example 1, 4-methyl-6-(6-(2′-oxo-2′,3′-dihydro-1′H-spiro[piperidin-4,4′-quinazolin]-1-yl)pyrimidine-4-carbonyl)benzo[d]oxazol-2(3H)-one] | 6 nM
